Source: patent US8426469B2, “Crystalline leukotriene B4” (LTB4 Sweden AB, priority 2006, dated 2013)
Entries after “also recorded” stand apart in the source; their conditions may differ.

Legend:
[1] = pH 7.0-7.6, stored at 2° C. to 25° C. (and above 25° C.); cited from earlier work
[2] = solubility of LTB4 in various solvents; format: physicochemical; conditions: Table 1; the value is the solvent
Excerpt: Table 1 below summarizes the solubility of LTB4 in various solvents.

[3] = stability of leukotriene B4 as a function of pH; format: physicochemical; conditions: alkaline pH versus neutral or acidic pH
Excerpt: Accordingly, in a preferred embodiment, the composition according to the present invention comprises an alkaline reacting carrier. The expression “alkaline reacting carrier”, in the context of the present invention, is intended to include an otherwise inert, pharmaceutically acceptable substance (or substances), which creates an alkaline “micro-pH” between 8.2 and 14, especially between 8.5 and 12.5, such as between 8.5 and 11.5, most preferably between 9.5 and 11.5, such as about 9.5, 9.6, 9.7, 9.8, 9.9, 10.0, 10.1, 10.2, 10.3, 10.4, 10.5, 10.6, 10.7, 10.8, 10.9, 11.0, 11.1, 11.2, 11.3, 11.4, or 11.5, around each LTB4 particle when water is adsorbed to the particles of the mixture or when water is added in small amounts to the mixture. In another preferred embodiment, the alkaline “micro-pH” ranges between 8.0 and 9.0, between 8.5 and 9.5, between 9.0 and 10.0, or between 10.0 and 11.5. […]

For `CCCCC/C=C\C[C@@H](O)/C=C/C=C/C=C\[C@@H](O)CCCC(=O)O` [LTB4, 5S,12R-dihydroxy-6,8,10,14(Z,E,E,Z)-eicosatetraenoic acid], the “stability of isotonic aqueous solution” value [1] is listed as “stable for only short periods of time (weeks to months)”, the “Slightly soluble or insoluble (solvent in which LTB4 is slightly soluble or insoluble; anti-solvent)” value [2] is listed as “Toluene; also recorded: Water; also recorded: Heptane” and the “stability depending on pH” value [3] is listed as “more stable at alkaline pH than at neutral or acidic pH”.
